# In patent US20100137346A1, “DESFE[…] ACTINIDE DEC[…]” (priority 2006, published 2010):
# Read-outs that look alike come from different tables or passages of the source.
# Test: Chelator-induced uranium excretion (urine + bile, 24 h) in bile duct-cannulated rat model
# Assay type: in vivo
# Details: for uranium clearance, in words: given IP immediately post uranyl acetate, doses per Table 1
# Method: Desferrithiocin Analogue Induced Excretion of Uranium. In order to compare results with previous chelator-induced iron excretion data, the uranium clearance studies were carried out in a bile duct-cannulated rat model. The animals were given uranyl acetate dihydrate SC at a dose of 5 mg/kg (the actual dose of uranium is 2.8 mg/kg). Bile and urine samples were collected for 24 hours after dosing. Kidneys were removed from selected animals and tissue uranium concentration measured. At least three animals were utilized in each experimental group. Data from two separate control studies (uranyl acetate/ no chelator) have now been combined for a total of 14 control animals. All uranium concentrations were measured using ICPMS. The data are reported as the total quantity of uranium excreted [urine +bile]; the mode of excretion [urine/bile] is also given. In addition the percentage of the administered dose of uranium cleared and chelator-induced uranium excretion vs the controls is also given. Four positive controls were evaluated: DTPA (13, Table 1) given as its trisodium calcium salt, DFO (14), N,N′-bis(2hydroxybenzyl)ethylenediamine-N,N′-diacetic acid, monosodium salt (NaHBED, 15) and the hydroxypyridone CP94 (16) shown to bind uranium [Pashalidis, et al., Effective complex formation in the interaction of 1,2-dimethyl-3-hydroxypyrid-4-one (Deferiprone or L1) with uranium(VI), Journal of Radioanalytical and Nuclear Chemistry 1999; 242:181-184.] The total metal cleared after 24 h in control rats was 10% of the administered dose. When DTPA, 13, was given IP or PO at 300 μmol/kg immediately after uranium, the excretion was 17% and 8% of the administered dose respectively (p>0.05). However, when the drug was given IP at a dose of 600 μmol/kg immediately post-metal, the uranium excretion was significant, 20% (p<0.005). This is consistent with previously published data using a similar animal model.[Domingo, et al., Comparative effects of the chelators sodium 4,5-dihydroxybenzene-1,3-disulfonate (Tiron) and diethylenetriaminepentaacetic acid (DTPA) on acute uranium nephrotoxicity in rats, Toxicology 1997; 118:49-59] DFO (14) and CP94 (16) given IP immediately post uranyl acetate were ineffective.
# Desferrithiocin Analogue-Induced Excretion of Uranium. In order to compare results with previous chelator-induced iron excretion data, the uranium clearance studies were carried out in a bile duct-cannulated rat model. The animals were given uranyl acetate dihydrate SC at a dose of 5 mg/kg (the actual dose of uranium is 2.8 mg/kg). Bile and urine samples were collected for 24 hours after dosing. Kidneys were removed from selected animals and tissue uranium concentration measured. At least three animals were utilized in each experimental group. Data from two separate control studies (uranyl acetate/ no chelator) are combined for a total of 14 control animals. All uranium concentrations were measured using ICPMS. The data are reported as the total quantity of uranium excreted [urine +bile]; the mode of excretion [urine/bile] is also given. In addition the percentage of the administered dose of uranium cleared and chelator-induced uranium excretion vs the controls is also given. Four positive controls were evaluated: DTPA (1, Table 1) given as its trisodium calcium salt, DFO (2), N,N -bis(2-hydroxybenzyl)ethylenediamine-N,N-diacetic acid, monosodium salt (NaHBED, 3) and the hydroxypyridone CP94 (4) shown to bind uranium. The total metal cleared after 24 h in control rats was 10% of the administered dose. When DTPA, 1, was given IP or PO at 300 μmol/kg immediately after uranium, the excretion was 17% and 8% of the administered dose respectively (p>0.05). However, when the drug was given IP at a dose of 600 μmol/kg immediately post metal, the uranium excretion was significant, 20% (p<0.005). This is consistent with previously published data using a similar animal model.^2 DFO (2) and CP94 (4) given IP immediately post uranyl acetate were ineffective.
# [1] = Rattus norvegicus, ip, 24 h, 300 μmol/kg IP 0.5 h Post, read-out: Chelator-Induced U Excretion/Control
# [2] = Rattus norvegicus, ip, 24 h, 300 μmol/kg IP Immediate, read-out: Chelator-Induced U Excretion/Control
smiles,measurement,setting,value
CC1(C)SC(c2ccccc2O)=N[C@@H]1C(=O)O [drawing 9],% of Administered Dose Cleared,300 μmol/kg IP 0.5 h Post,7%
same,Uranium Excretion,300 μmol/kg IP 0.5 h Post,200 ± 47 µg/kg
same,Uranium Excretion [urine/bite],300 μmol/kg IP 0.5 h Post,[37/63]
same,% of Administered Dose Cleared,300 μmol/kg IP Immediate,26%
same,Uranium Excretion,300 μmol/kg IP Immediate,743 ± 189 µg/kg
same,Uranium Excretion [urine/bite],300 μmol/kg IP Immediate,8/92
same,response vs control in vivo at 300 µmol/kg,[1],70%
same,response vs control in vivo at 300 µmol/kg,[2],260%
C[C@@]1(C(=O)O)CSC(c2ccc(O)cc2O)=N1 [drawing 13],% of Administered Dose Cleared,300 μmol/kg IP Immediate,19%
COCCOCCOCCOc1ccc(C2=N[C@](C)(C(=O)O)CS2)c(O)c1,% of Administered Dose Cleared,300 μmol/kg IP Immediate,22%
same,Uranium Excretion,300 μmol/kg IP Immediate,626 ± 123 µg/kg
same,Uranium Excretion [urine/bite],300 μmol/kg IP Immediate,35/65
same,response vs control in vivo at 300 µmol/kg,[2],220%
"O=C([O-])CN(CCN(CC(=O)O)Cc1ccccc1O)Cc1ccccc1O.[Na+] [NaHBED, N,N′-bis(2hydroxybenzyl)ethylenediamine-N,N′-diacetic acid, monosodium salt, reference compound]","uranium clearance, in words",,marginally improved clearance
COCCOCCOCCOc1ccc(C2=N[C@@](C)(C(=O)O)CS2)c(O)c1 [drawing 21],Uranium Excretion,300 μmol/kg IP Immediate,626 ± 123 µg/kg
same,Uranium Excretion [urine/bite],300 μmol/kg IP Immediate,35/65
same,response vs control in vivo at 300 µmol/kg,[2],220%
CCC1=C(O)C(=O)CCN1CC [drawing 7],% of Administered Dose Cleared,450 μmol/kg IP Immediate,11%
same,Uranium Excretion,450 μmol/kg IP Immediate,302 ± 171 µg/kg
same,Uranium Excretion [urine/bite],450 μmol/kg IP Immediate,100/0
same,response vs control in vivo at 450 µmol/kg,"Rattus norvegicus, ip, 24 h, 450 μmol/kg IP Immediate, read-out: Chelator-Induced U Excretion/Control",110%
O=C(O)CN(CCN(CC(=O)O)CC(=O)O)CCN(CC(=O)O)CC(=O)O [drawing 4],% of Administered Dose Cleared,300 μmol/kg IP Immediate,17%
same,Uranium Excretion,300 μmol/kg IP Immediate,469 ± 271 µg/kg
same,Uranium Excretion [urine/bite],300 μmol/kg IP Immediate,99/1
same,% of Administered Dose Cleared,300 μmol/kg PO Immediate,6%
same,Uranium Excretion,300 μmol/kg PO Immediate,235 ± 205 µg/kg
same,Uranium Excretion [urine/bite],300 μmol/kg PO Immediate,[100/0]
same,% of Administered Dose Cleared,600 μmol/kg IP Immediate,20%
same,Uranium Excretion,600 μmol/kg IP Immediate,546 ± 147 µg/kg
same,Uranium Excretion [urine/bite],600 μmol/kg IP Immediate,[100/0]
same,response vs control in vivo at 300 µmol/kg,[2],170%
same,response vs control in vivo at 600 µmol/kg,"Rattus norvegicus, ip, 24 h, 600 μmol/kg IP Immediate, read-out: Chelator-Induced U Excretion/Control",200%
same,response vs control in vivo at 300 µmol/kg,"Rattus norvegicus, po, 24 h, 300 μmol/kg PO Immediate, read-out: Chelator-Induced U Excretion/Control",80%
COc1ccc(C2=N[C@@](C)(C(=O)O)CS2)c(O)c1 [drawing 8],% of Administered Dose Cleared,300 μmol/kg IP 0.5 h Post,15%
same,Chelator-Induced U Excretion/Control,300 μmol/kg IP 0.5 h Post,1.5
same,Uranium Excretion,300 μmol/kg IP 0.5 h Post,413 ± 148 µg/kg
same,Uranium Excretion [urine/bite],300 μmol/kg IP 0.5 h Post,[37/63]
same,Chelator-Induced U Excretion/Control,300 μmol/kg IP Immediate,2.0
same,Uranium Excretion,300 μmol/kg IP Immediate,568 ± 133 µg/kg
same,Uranium Excretion [urine/bite],300 μmol/kg IP Immediate,59/41
COc1ccc(C2=N[C@](C)(C(=O)O)CS2)c(O)c1,% of Administered Dose Cleared,300 μmol/kg IP 0.5 h Post,15%
same,Uranium Excretion,300 μmol/kg IP 0.5 h Post,413 ± 148 µg/kg
same,Uranium Excretion [urine/bite],300 μmol/kg IP 0.5 h Post,37/63
same,% of Administered Dose Cleared,300 μmol/kg IP Immediate,20%
same,Uranium Excretion,300 μmol/kg IP Immediate,568 ± 133 µg/kg
same,Uranium Excretion [urine/bite],300 μmol/kg IP Immediate,59/41
same,response vs control in vivo at 300 µmol/kg,[1],150%
same,response vs control in vivo at 300 µmol/kg,[2],200%
CC1(C)SC(c2ccccc2O)=N[C@@H]1C(=O)O [drawing 20],% of Administered Dose Cleared,300 μmol/kg IP 0.5 h Post,7%
same,Chelator-Induced U Excretion/Control,300 μmol/kg IP 0.5 h Post,0.7
same,Uranium Excretion,300 μmol/kg IP 0.5 h Post,200 ± 47 µg/kg
same,Uranium Excretion [urine/bite],300 μmol/kg IP 0.5 h Post,37/63
same,% of Administered Dose Cleared,300 μmol/kg IP Immediate,26%
same,Chelator-Induced U Excretion/Control,300 μmol/kg IP Immediate,2.6
same,Uranium Excretion,300 μmol/kg IP Immediate,743 ± 189 µg/kg
same,Uranium Excretion [urine/bite],300 μmol/kg IP Immediate,8/92
COc1ccc(C2=N[C@@H](C(=O)O)CS2)c(O)c1 [drawing 12],% of Administered Dose Cleared,300 μmol/kg IP 0.5 h Post,33%
same,Chelator-Induced U Excretion/Control,300 μmol/kg IP 0.5 h Post,3.3
same,Uranium Excretion,300 μmol/kg IP 0.5 h Post,917 ± 177 µg/kg
same,Uranium Excretion [urine/bite],300 μmol/kg IP 0.5 h Post,[16/84]
same,% of Administered Dose Cleared,300 μmol/kg IP 0.5 h Pre,29%
same,Chelator-Induced U Excretion/Control,300 μmol/kg IP 0.5 h Pre,2.9
same,Uranium Excretion,300 μmol/kg IP 0.5 h Pre,815 ± 211 µg/kg
same,Uranium Excretion [urine/bite],300 μmol/kg IP 0.5 h Pre,48/52
same,% of Administered Dose Cleared,300 μmol/kg IP 2 h Post,30%
same,Chelator-Induced U Excretion/Control,300 μmol/kg IP 2 h Post,3.0
same,Uranium Excretion,300 μmol/kg IP 2 h Post,847 ± 335 µg/kg
same,Uranium Excretion [urine/bite],300 μmol/kg IP 2 h Post,[46/54]
same,% of Administered Dose Cleared,300 μmol/kg IP 4 h Post,16%
same,Chelator-Induced U Excretion/Control,300 μmol/kg IP 4 h Post,1.6
same,Uranium Excretion,300 μmol/kg IP 4 h Post,444 ± 119 µg/kg
same,Uranium Excretion [urine/bite],300 μmol/kg IP 4 h Post,[66/34]
same,% of Administered Dose Cleared,300 μmol/kg IP Immediate,30%
same,Chelator-Induced U Excretion/Control,300 μmol/kg IP Immediate,3.0
same,Uranium Excretion,300 μmol/kg IP Immediate,838 ± 166 µg/kg
same,Uranium Excretion [urine/bite],300 μmol/kg IP Immediate,[64/36]
same,% of Administered Dose Cleared,300 μmol/kg PO 2 h Post,18%
same,Chelator-Induced U Excretion/Control,300 μmol/kg PO 2 h Post,1.8
same,Uranium Excretion,300 μmol/kg PO 2 h Post,507 ± 182 µg/kg
same,Uranium Excretion [urine/bite],300 μmol/kg PO 2 h Post,[53/47]
same,% of Administered Dose Cleared,300 μmol/kg PO Immediate,23%
same,Chelator-Induced U Excretion/Control,300 μmol/kg PO Immediate,2.3
same,Uranium Excretion,300 μmol/kg PO Immediate,642 ± 101 µg/kg
same,Uranium Excretion [urine/bite],300 μmol/kg PO Immediate,[43/57]
same,% of Administered Dose Cleared,300 μmol/kg SC Immediate,40%
same,Chelator-Induced U Excretion/Control,300 μmol/kg SC Immediate,4.0
same,Uranium Excretion,300 μmol/kg SC Immediate,1130 ± 245 µg/kg
same,Uranium Excretion [urine/bite],300 μmol/kg SC Immediate,[13/87]
same,% of Administered Dose Cleared,600 μmol/kg PO 0.5 h Post,25%
same,Chelator-Induced U Excretion/Control,600 μmol/kg PO 0.5 h Post,2.5
same,Uranium Excretion,600 μmol/kg PO 0.5 h Post,698 ± 166 µg/kg
same,Uranium Excretion [urine/bite],600 μmol/kg PO 0.5 h Post,[24/76]
same,% of Administered Dose Cleared,600 μmol/kg PO 1 h Post,26%
same,Chelator-Induced U Excretion/Control,600 μmol/kg PO 1 h Post,2.6
same,Uranium Excretion,600 μmol/kg PO 1 h Post,723 ± 128 µg/kg
same,Uranium Excretion [urine/bite],600 μmol/kg PO 1 h Post,[28/72]
"CCC1=C(O)C(=O)CCN1CC [CP94, reference compound]","uranium clearance, in words",,ineffective
O=C(O)CN(CCN(CC(=O)O)CC(=O)O)CCN(CC(=O)O)CC(=O)O [drawing 16],% of Administered Dose Cleared,300 μmol/kg IP Immediate,17%
same,Chelator-Induced U Excretion/Control,300 μmol/kg IP Immediate,1.7
same,Uranium Excretion,300 μmol/kg IP Immediate,469 ± 271 µg/kg
same,Uranium Excretion [urine/bite],300 μmol/kg IP Immediate,99/1
same,% of Administered Dose Cleared,300 μmol/kg PO Immediate,8%
same,Chelator-Induced U Excretion/Control,300 μmol/kg PO Immediate,0.8
same,Uranium Excretion,300 μmol/kg PO Immediate,235 ± 205 µg/kg
same,Uranium Excretion [urine/bite],300 μmol/kg PO Immediate,100/0
same,% of Administered Dose Cleared,600 μmol/kg IP Immediate,20%
same,Chelator-Induced U Excretion/Control,600 μmol/kg IP Immediate,2.0
same,Uranium Excretion,600 μmol/kg IP Immediate,548 ± 147 µg/kg
same,Uranium Excretion [urine/bite],600 μmol/kg IP Immediate,100/0
